Source: patent US8598128B2, “Fructosylated puerarin, and preparation method and use thereof” (priority 2010, dated 2013)
In brackets after ≈: the same amount, converted by molar mass.

Tests used:
[1] = Solubility determination at 25° C.
[2] = Metabokinetic experiment in blood after caudal vein injection; conditions: 50 mg/kg caudal vein, n = 5
Procedure: Embodiment 5: Metabokinetic Experiment of monofructosyl-β(2,6)-Puerarin in Blood
In HPLC analysis, DIONEX was used, with chromatographic column as Discovery HS C18 ([…], 5 μm), feeding specimen volume 20 μL, column temperature 30° C., the detector was UVD170U, with detection wavelength of 254 nm, flowing phase: A, water, B, chromatographic class methanol, A:B=80:20, at flow rate of 1 mL/min.
Sprague-Dawley mice (SD mice), with weight of 180-220 g, male and female in half, provided by Medical Experiment Center of Nantong University, with production permit No.: SCXK (Su) 20080010.
SD mice were randomly divided into 2 groups of 5 each, fasting for 12 hours before experiment. Puerarin and monofructosyl-β(2,6)-puerarin were respectively dissolved in 20% 1,2-PG normal saline, and injected into mouse caudal vein at a dosage of 50 mg/kg. After injection, at t=0 min, 4 min, 7 min, 17 min, 40 min, 60 min, 120 min and 180 min, 0.5 mL of blood was taken from orbit and put into centrifugal tubes treated with liquaemin, then it was immediately separated by centrifuging at 3000 rpm for 15 min, to separate out plasma for analysis.
Plasma of 100 μL was precisely taken and put into test tube, and 400 μL of methanol sedimented protein was added, they were mixed on vortex mixer for 5 min, then centrifuged at 10000 rpm for 10 min, and the supernatant was used for HPLC analysis.
The plasma concentration of the puerarin and monofructosyl-β(2,6)-puerarin specimens prepared as per 3.2 was obtained by calculation with external reference method. The data obtained were analyzed using pharmacokinetics statistic software.

For `O=c1c(-c2ccc(O)cc2)coc2c([C@@H]3O[C@H](CO[C@]4(CO)O[C@H](CO)[C@@H](O)[C@@H]4O)[C@@H](O)[C@H](O)[C@H]3O)c(O)ccc12` [monofructosyl-β(2,6)-puerarin], which solubility [1] is on record?
Its solubility is 26.0 mg/mL (≈ 44.9 mM).

What about the “solubility relative to puerarin” value ([1]; puerarin 5.2 g/L) of the same compound?
Its value is 5 times.

What about the “AUC (0-t)” value [2] of the same compound?
The value was 5523.446 ± 688.104 mg/Lxmin.

And the “CL (whole body clearance)” value [2]?
Its value is 9 ± 1 mL/min/kg.

What about the “MRT (0-t)” value [2] of the same compound?
Its value is 25.707 ± 2.324 min.

And the “MRT (0-∞)” value [2]?
Its value is 27.453 ± 2.976 min.

What about the Y [2] of the same compound?
Its Y is 0.256 ± 0.032 L/kg.

What about the “t½ (half life of clearance)” value [2] of the same compound?
Its value is 19.741 ± 2.34 min.
